Laboratory results published in paper PMC12030059, “Mechanistic Advances in the Therapeutic Application of Bixin for Lung Inflammation In Vitro and In Vivo” (Pharmaceuticals, 2025).

What was measured:
[1] = Solubility tests of the potassium salt; type: physicochemical
[2] = tested on: C57BL/6 mice challenged with intranasal LPS; assay: Intranasal LPS lung inflammation in mice, BAL cytokine ELISA; type: in vivo; conditions: 200 mg/kg gavage, 5 days
Description: Eight-week-old male C57BL/6 mice were obtained from the Multidisciplinary Center for Biological Research in Laboratory Animal Science (CEMIB/UNICAMP, Campinas, Brazil). The mice were provided with Purina chow ad libitum (Nuvilab, Curitiba, Brazil) and had unrestricted access to water in a controlled environment maintained at 22 ± 2 °C, 50–70% relative humidity, and a 12 h light/dark cycle (EB-273B, Insight Equipamentos Ltd., São Paulo, Brazil). They were acclimatized for two weeks before the experimental procedures. All experimental protocols were approved by the local Animal Ethics Committee (096/19).
To evaluate the pharmacological effects of potassium bixinate, the animals were divided into four groups (n = 5–7): (1) Control, (2) KBx, (3) LPS, and (4) LPS + KBx. For five consecutive days, animals in groups 2 and 4 were treated by oral gavage with 200 mg/kg of potassium bixinate diluted in PBS in a final volume of 100 μL, while animals in groups 1 and 3 were treated with 100 μL of PBS. On the sixth day, animals in groups 3 and 4 were challenged intranasally with 60 μg of LPS (extracted from Escherichia coli O55:B5) diluted in PBS (10 μL), while animals in groups 1 and 2 received 10 μL of PBS intranasally. Sixteen hours after LPS/PBS instillation, the animals were euthanized by cervical dislocation under isoflurane sedation.
Immediately following euthanasia, BAL was collected using an intratracheal cannula. The lavage was performed with 1.5 mL of saline solution (3 × 0.5 mL). The collected lavage fluid was centrifuged at 600× g for 10 min, and the supernatant was stored at −80 °C for subsequent enzyme-linked immunosorbent assay (ELISA) analysis.
Cytokine levels (IL-10 and KC; #900-K53K and #900-K127K) were quantified in BAL samples using an ELISA kit, following the manufacturer’s instructions (PeproTech, Neuilly Sur-Seine, France). A sample volume of 25 μL was used without dilution. The enzymatic reaction was initiated with peroxidase and a specific substrate, and the reaction was stopped before measuring absorbance at 450 nm and 570 nm using a Varioskan LUX spectrometer (ThermoFisher Scientific, Waltham, MA, USA). A calibration curve was generated using standard concentrations of the target protein, with the method showing linearity across a range of 2000–0 pg/mL.

[3] = tested on: F-actin in RAW 264.7 cells; assay: F-actin polymerization assay; type: cell-based; conditions: 200 μM, alone and in the presence of 5% CSE
Description: RAW 264.7 cells were seeded in a 24-well plate (2.5 × 10^5 cells/well) and stimulated as previously described. After reaching 70% confluence, cells were blocked with 5% (w/v) BSA for 1 h and washed three times in PBS-Tween 20 (0.1% (v/v)). The supernatants were replaced with ActinRed (ThermoFisher Scientific, Waltham, MA, USA) for 30 min, followed by washing and incubation with DAPI for 5 min. After the final wash, DMEM FluoroBrite was added, and fluorescence was analyzed using the EVOS inverted microscope (ThermoFisher Scientific, Waltham, MA, USA).

[4] = PAMPA-GIT permeability assay; type: in vitro ADME
From the text: The parallel artificial membrane permeability assay (PAMPA) utilizes a 96-well plate system in a “sandwich” format, where one plate is positioned above another (PAMPA). The upper plate, known as the donor compartment, contains the compounds (test or control) dissolved in a buffered solution. […] The lipid composition of the PVDF filter varies depending on the type of permeability test. For gastrointestinal tract (GIT) permeability assessments, L-α-soy phosphatidylcholine in dodecane is used. Optical density values are measured at specified wavelengths for each compound and compared against controls. For GIT permeability, the absorbed fraction (Fa%) and permeability (Pe) are determined. […] Compounds for these assays were diluted from a 10 mM stock solution. These assays were conducted using a 1 mg/mL stock solution per compound.

[5] = Rat liver microsomal stability in the absence of cofactors (NADPH generating system); type: in vitro ADME; conditions: rat liver microsomes without NADPH cofactors, 4 h, 50 μM, 37 °C
Description: A final solution of microsomes (1 mg/mL protein) in 250 μL of PBS at pH 7.4 containing 50 μM of bixin was prepared in the absence of an NADPH-regenerating metabolic cofactor system. The bixin was incubated with rat microsomes under these conditions for 0, 30, 60, 120, and 240 min with shaking in a water bath at 37 °C. The subsequent steps for protein precipitation, bixin extraction, and HPLC analysis were identical to those described for the rat plasma stability assay.

Rat plasma stability = type: in vitro ADME; conditions: over 4 h, 50 μM, 37 °C
Description: Two- to three-month-old healthy male Wistar rats (with an average weight of 385 g) were obtained from the Graduation Program in Pharmacology and Medicinal Chemistry Bioterium (CCS/UFRJ) (Rio de Janeiro, Brazil). The rats were fed ad libitum with Purina chow (Nuvilab, Curitiba, Brazil) and had unrestricted access to water. They were housed in a controlled environment maintained at 22 ± 2 °C, 50–70% relative humidity and a 12 h light/dark cycle. The local Animal Ethics Committee approved all experimental procedures (046/21).
A 10 mM stock solution of bixin was prepared in DMSO. Rat blood was collected with heparin and centrifuged. The plasma fraction was separated and diluted to 80% in PBS at pH 7.4. Then, 50 μL of the 80% rat plasma solution was added to a final volume of 250 μL of a KPE at pH 7.4 containing 50 μM of bixin. The bixin was incubated with rat plasma under these conditions for 0, 30, 60, 120, and 240 min with shaking in a water bath at 37 °C. […] The supernatant was collected, filtered through a 0.22 μm filter into a vial, and then analyzed by HPLC using an LC-20AD Shimadzu (Kyoto, Japan) system equipped with a 100-5C18 Kromasil (Bohus, Sweden) analytical column (4.6 mm × 250 mm, 5 μm) and an SPD M20A diode array detector Shimadzu (Kyoto, Japan) set to wavelengths of 271 nm and 457 nm. […]

| Papp ([4]; L-α-soy phosphatidylcholine in dodecane, read-out: Experimental Pe) | Experimental Fa ([4]; absorbed fraction) | initial concentration maintained in microsomes [5] | initial concentration retained in plasma (Rat plasma stability) | Compound | aqueous solubility relative to bixin [1] | IL-10 levels in BAL, KBx alone ([2]; no LPS) | KC levels in BAL, KBx alone vs control ([2]; no LPS) | IL-10 levels in BAL, LPS + KBx ([2]; then LPS 60 μg i.n., 16 h) | KC levels in BAL, LPS + KBx vs LPS ([2]; then LPS 60 μg i.n., 16 h) | F-actin labeling (MFI) [3] |
| --- | --- | --- | --- | --- | --- | --- | --- | --- | --- | --- |
|  |  |  |  | potassium bixinate [KBx] | significant increase in the aqueous solubility | comparable to the control | no significant effect on KC levels | can increase IL-10 production in the presence of LPS | significantly lower compared to the LPS group | maintained F-actin at control levels |
| 0.36 ×10⁻⁶ cm/s | 12.79% | ~100% | ~100% | COC(=O)/C=C/C(C)=C\C=C\C(C)=C\C=C\C=C(C)\C=C\C=C(C)\C=C\C(=O)O [HBx, (2E,4E,6E,8E,10E,12E,14E,16Z,18E)-20-methoxy-4,8,13,17-tetramethyl-20-oxoicosa-2,4,6,8,10,12,14,16,18-nonaenoic acid] |  |  |  |  |  | maintained F-actin at control levels |
